Laboratory results as given in patent publication US20230293539A1, “MLL1-WDR5 PROTEIN-PROTEIN INTERACTION INHIBITOR COMPOUNDS AND USES THEREOF” (HUYABIO International, LLC, priority 2022, published 2023).
pIC50: −log10 of the molar value.

How the values were obtained:
[1] = tested on: MV 411 cells; assay: Cell Viability Assay (CellTiter-Glo); type: cell-based; conditions: Homo sapiens, MV4-11, 72 hours, read-out: IC50 (anti-proliferative activity against leukemia cells)
Procedure: Cell lines and maintenance: All cell lines (MV 411) used for in vitro and in vivo studies were supplied as part of Wuxi AppTech cell bank. Cell lines were maintained in a medium supplemented with 10% heat inactivated fetal bovine serum at 37° C., in an atmosphere of 5% CO2, in air. The tumor cells were routinely subcultured twice weekly. The cells growing in an exponential growth phase were used for the in vitro cell potency and in vivo efficacy studies.
EXAMPLE 1: Cell Viability Assay: For cell cytotoxicity assays, 2000 cells/well were plated in 384-well plates. Twenty four hours after plating, cells were treated with inhibitors at the indicated compound concentrations. On Day 3 (72 hours), cells were lysed with CellTiter-Glo® Luminescent Cell Viability Assay reagent (Promega) and luminescence was read using the EnVision Multi-plate reader. To calculate IC50, a dose-response curve is generated using a nonlinear regression model with a sigmoidal dose response. The formula of surviving rate is shown below. IC50 values were automatically generated by GraphPad Prism 8.0. See FIG. 1A and FIG. 1B and Tables 3 and 4.

[2] = Compound formulation stability assay; type: physicochemical; conditions: 10 mg/mL in 10% DMSO/10% solutol HS 15/80% water, 2-8° C.
Procedure: Compound formulation stability assay: Test articles were formulated in 10% DMSO/10% solutol HS 15/80% water and stored at 4° C. Formulated compounds were analyzed by a HPLC-UV method for actual concentrations and % remaining on Day 1, 4 and 7 after formulation to determine the stability of the formulated test article. The HPLC system was equipped with Shimadzu LC-20 high-performance liquid chromatograph, SIL-20AC auto sampler, LC-20AB pump and SPD-M20A detector. A Waters XBridge C18 (4.6*100 mm) column was applied for the separation. […]

[3] = Mouse PK (oral); type: in vivo, C57/B16 mice; conditions: for Cmax: plasma; for AUC(0-t) / half-life: C57/B16, plasma
Procedure: Mouse PK: Animals were dosed with a single intravenous bolus or oral gavage administration in naïve C57/B16 mice (Beijing Vital River Laboratory Animal Co., LTD). Blood samples were collected at the respective sampling time points. The quantification of compound concentrations in mouse or rat plasma was quantified using LC-MS/MS method. Plasma concentration versus time data was analyzed by non-compartmental mode approaches using the WinNonlin software program (version 6.3 or above, Pharsight). Pharmacokinetic parameters, including C0 (initial concentration after drug administration), […], Vdss (volume of distribution), Cmax (maximum peak concentration of the drug), Tmax (time required to reach Cmax) T1/2 (time required for drug concentration to decrease by 50% after administration), AUC0-last (area under the concentration-time curve from dosing time t=0 to the time of the last measured concentration), AUC0-inf (total drug exposure across time), MRT0-last (mean residence time from dosing time t=0 to the time of the last measured concentration), MRT0-inf f (mean residence time of total drug exposure), bioavailability (%) (the percentage (or the fraction F) of an administered drug dose that reaches the systemic circulation) for IV and PO groups were calculated. See Table 7 and FIGS. 6A, 6B, 6C and 6D.

[4] = Dog PK (oral); type: in vivo, Beagle dogs; conditions: for Cmax / AUC(0-t) / half-life: Beagle, plasma
Procedure: Dog PK: Fasted or fed non-naïve Beagle dogs (Marshall Bioresources, Beijing, China) were administered a single intravenous bolus or oral gavage administration of test compounds at respective doses. Blood samples for plasma isolation were collected from a peripheral vessel, from restrained, non-sedated animals at the respective sampling time points. The quantification of compound concentrations in dog plasma was quantified using LC-MS/MS method. Plasma concentration versus time data was analyzed by non-compartmental mode approaches using the WinNonlin software program (version 6.3 or above, Pharsight). Pharmacokinetic parameters, including C0, CL, Vdss, Cmax, Tmax T1/2, AUC0-last, AUC0-inf, MRT0-last, MRT0-inf, bioavailability (%) for IV and PO groups were calculated. See FIGS. 9A, […], 9C and FIGS. 10A, 10B, 10C, and 10D.

[5] = Liver S9 stability assay; type: in vitro ADME, human; conditions: for half-life at 1 μM / microsomal CLint at 1 μM: Human liver S9; for % Remaining after 60 min incubation: Human liver S9, 1 μM, 5 mM GSH, 37° C.
Procedure: (§1) Liver S9 stability assay: Test compounds (1 μM) and positive control were incubated with 5 mM GSH and liver S9 (1 mg protein/ml) from multiple species (including human, monkey, dog, rat and mouse) at 37° C. at 0, 10, 30, and 60 minutes in duplicate. After adding the stop solution, 100 μL of supernatant were analyzed by LC-MS/MS. The % remaining of test compound, T1/2 (min), and CLint (μL/min/mg) were calculated and were reported.

[6] = Liver S9 stability assay; type: in vitro ADME, rat; conditions: for half-life at 1 μM / microsomal CLint at 1 μM: Rat liver S9; for % Remaining after 60 min incubation: Rat liver S9, 1 μM, 5 mM GSH, 37° C.
Procedure: as §1

[7] = Liver S9 stability assay; type: in vitro ADME, dog; conditions: for half-life at 1 μM / microsomal CLint at 1 μM: Dog liver S9; for % Remaining after 60 min incubation: Dog liver S9, 1 μM, 5 mM GSH, 37° C.
Procedure: as §1

[8] = Liver S9 stability assay; type: in vitro ADME, mouse; conditions: for half-life at 1 μM / microsomal CLint at 1 μM: Mouse liver S9; for % Remaining after 60 min incubation: Mouse liver S9, 1 μM, 5 mM GSH, 37° C.
Procedure: as §1

[9] = WBS (whole blood stability) assay; type: in vitro ADME; conditions: for % Remaining after 60 min incubation: 2 μM, 37° C.
Procedure: WBS (whole blood stability) assay: The blood samples were collected freshly from multiple species including human, monkey, dog, rat and mouse. 2 μM of test compound and positive control were incubated with the whole blood at 37° C. at 0, 10, 30, 60, and 120 minutes in duplicate. After adding the stop solution, 200 μL of supernatant were analyzed by LC-MS/MS. The % remaining of test compound and T1/2 (min) were calculated and reported.

[10] = molecular target: WDR5 (Homo sapiens, UniProt P61964); assay: WDR5 TR-FRET Assay; type: binding; conditions: 5 nM WDR5 protein, 10 nM peptide, read-out: IC50 (MLL1-WDR5 PPI inhibitory activity)
Procedure: WDR5 TR-FRET Assay Procedure: Stock compounds were transferred to the assay plate by Echo Liquid Handler. Reactions were performed in the assay buffer (1×PBS, 300 mM NaCl, 0.5 mM TCEP, 0.1% CHAPS) containing 5 nM WDR5 protein, 10 nM peptide (Ac-ARTEVHLRKS-[Ahx-Ahx][C]-Alexa Fluor 488-NH2) and 0.25 nM Tb-anti His antibody (Tb-Ab) in 384-well white plate (PerkinElmer) with a final volume of 20 μl. Compounds were incubated with WDR5 protein for 30 min at room temperature. Plates were covered, protected from light and incubated for 60 min. at room temperature after adding the peptide and Tb-Ab. EnVision Multimode Plate Reader (PerkinElmer) was used for the TR-FRET assay with excitation wavelength at 340 nm and emission wavelength at 495 and 520 nm. The ratio of the 520/495 nm wavelengths were used to assess the degree of the FRET signal. IC50 was calculated by fitting the inhibition data using XLfit software to sigmoidal dose-response model.

SMILES: C[C@@H]1CN(c2ncc(-c3cc(Nc4ncnc(Cl)c4N)c(N4CCN(C)[C@@H](C)C4)cc3F)cn2)C[C@H](C)O1 [DDO-2213_023, 6-chloro-N4-(5-(2-((2S,6R)-2,6-dimethylmorpholino)pyrimidin-5-yl)-2-((S)-3,4-dimethylpiperazin-1-yl)-4-fluorophenyl)pyrimidine-4,5-diamine]
- pIC50 [1]: 5.39
- Accuracy % (Day 0) [2]: 89.9%
- Formulation Appearance (Day 0) [2]: clear solution
- Remaining % (Day 0) [2]: 100%
- Accuracy % (Day 1) [2]: 81.3%
- Formulation Appearance (Day 1) [2]: clear solution
- Remaining % (Day 1) [2]: 90.4%
- Accuracy % (Day 4) [2]: 92.2%
- Formulation Appearance (Day 4) [2]: clear solution
- Remaining % (Day 4) [2]: 100%
- Accuracy % (Day 7) [2]: 91.5%
- Formulation Appearance (Day 7) [2]: clear solution
- Remaining % (Day 7) [2]: 99.1%
- F ([3]; 10 mpk): 82.5%
- F ([3]; 30 mpk): 93.8%
- Cmax ([3]; C57/B16, 10 mg/kg, 10 mpk): 1320 nM
- Cmax ([3]; C57/B16, 30 mg/kg, 30 mpk): 3430 nM
- AUC(0-t) ([3]; 10 mg/kg, 10 mpk): 16.4 µM·h
- half-life ([3]; 10 mg/kg, 10 mpk): 11.1 h
- AUC(0-t) ([3]; 30 mg/kg, 30 mpk): 56 µM·h
- half-life ([3]; 30 mg/kg, 30 mpk): 13.3 h
- F ([4]; 1.5 mpk): 105.0%
- F ([4]; 4.5 mpk): 88.8%
- Cmax ([4]; 1.5 mg/kg, 1.5 mpk): 188 nM
- Cmax ([4]; 4.5 mg/kg, 4.5 mpk): 445 nM
- AUC(0-t) ([4]; 1.5 mg/kg, 1.5 mpk): 5.28 µM·h
- half-life ([4]; 1.5 mg/kg, 1.5 mpk): 63.6 h
- AUC(0-t) ([4]; 4.5 mg/kg, 4.5 mpk): 13.4 µM·h
- half-life ([4]; 4.5 mg/kg, 4.5 mpk): 48.2 h
- half-life at 1 μM [5]: > 2.42 h
- microsomal CLint at 1 μM [5]: < 4.8 µL/min/mg
- % Remaining after 60 min incubation [5]: 81.8%
- half-life at 1 μM [6]: > 2.42 h
- microsomal CLint at 1 μM [6]: < 4.8 µL/min/mg
- % Remaining after 60 min incubation [6]: 101%
- half-life at 1 μM [7]: > 2.42 h
- microsomal CLint at 1 μM [7]: < 4.8 µL/min/mg
- % Remaining after 60 min incubation [7]: 112%
- half-life at 1 μM [8]: 2.1 h
- microsomal CLint at 1 μM [8]: 5.5 µL/min/mg
- % Remaining after 60 min incubation [8]: 71.5%
- half-life at 2 μM ([9]; Dog whole blood): > 2.41 h
- % Remaining after 60 min incubation ([9]; Dog whole blood): 97.3%
- half-life at 2 μM ([9]; Human whole blood): 8.75 h
- % Remaining after 60 min incubation ([9]; Human whole blood): 103%
- half-life at 2 μM ([9]; Mouse whole blood): > 2.41 h
- % Remaining after 60 min incubation ([9]; Mouse whole blood): 103%
- half-life at 2 μM ([9]; Rat whole blood): > 2.41 h
- % Remaining after 60 min incubation ([9]; Rat whole blood): 103%

SMILES: CCN(CC)C(=O)c1cn(-c2cc(NC(=O)c3cc(N)c(F)c(C)c3Cl)c(N3C[C@@H](C)N(C)[C@@H](C)C3)cc2F)nn1 [HYBI-082, 1-(5-(5-amino-2-chloro-4-fluoro-3-methylbenzamido)-2-fluoro-4-((3S,5R)-3,4,5-trimethylpiperazin-1-yl)phenyl)-N,N-diethyl-1H-1,2,3-triazole-4-carboxamide]
- pIC50 [1]: 5.11
- pIC50 [10]: 8.27
- Accuracy % (Day 0) [2]: 96.3%
- Formulation Appearance (Day 0) [2]: clear
- Remaining % (Day 0) [2]: 100%
- Accuracy % (Day 1) [2]: 96.0%
- Formulation Appearance (Day 1) [2]: clear
- Remaining % (Day 1) [2]: 100%
- Accuracy % (Day 4) [2]: 99.3%
- Formulation Appearance (Day 4) [2]: clear
- Remaining % (Day 4) [2]: 103%
- Accuracy % (Day 7) [2]: 98.6%
- Formulation Appearance (Day 7) [2]: clear
- Remaining % (Day 7) [2]: 102%
- F ([3]; 10 mpk): 23.3%
- F ([3]; 30 mpk): 27.5%
- Cmax ([3]; C57/B16, 10 mg/kg, 10 mpk): 1670 nM
- Cmax ([3]; C57/B16, 30 mg/kg, 30 mpk): 4530 nM
- AUC(0-t) ([3]; 10 mg/kg, 10 mpk): 2.22 µM·h
- half-life ([3]; 10 mg/kg, 10 mpk): 0.8 h
- AUC(0-t) ([3]; 30 mg/kg, 30 mpk): 7.61 µM·h
- half-life ([3]; 30 mg/kg, 30 mpk): 2 h
- half-life at 1 μM [5]: > 2.42 h
- microsomal CLint at 1 μM [5]: < 4.8 µL/min/mg
- % Remaining after 60 min incubation [5]: 107%
- half-life at 1 μM [6]: > 2.42 h
- microsomal CLint at 1 μM [6]: < 4.8 µL/min/mg
- % Remaining after 60 min incubation [6]: 98.3%
- half-life at 1 μM [7]: > 2.42 h
- microsomal CLint at 1 μM [7]: < 4.8 µL/min/mg
- % Remaining after 60 min incubation [7]: 87.3%
- half-life at 1 μM [8]: > 2.42 h
- microsomal CLint at 1 μM [8]: < 4.8 µL/min/mg
- % Remaining after 60 min incubation [8]: 87.7%
- half-life at 2 μM ([9]; Dog whole blood): > 2.41 h
- % Remaining after 60 min incubation ([9]; Dog whole blood): 90.6%
- half-life at 2 μM ([9]; Human whole blood): 11.9 h
- % Remaining after 60 min incubation ([9]; Human whole blood): 100%
- half-life at 2 μM ([9]; Mouse whole blood): > 2.41 h
- % Remaining after 60 min incubation ([9]; Mouse whole blood): 82.4%
- half-life at 2 μM ([9]; Rat whole blood): > 2.41 h
- % Remaining after 60 min incubation ([9]; Rat whole blood): 99.6%
